Experimental data reported in patent US20160017399A1, “ELECTROCHEMICAL-BASED ANALYTICAL TEST STRIP WITH ENZYMATIC REAGENT LAYER CONTAINING A NAPHTHOQUINONE-BASED MEDIATOR AND FAD-GDH” (LifeScan Scotland Limited, priority 2014, published 2016).
Like-named read-outs stand apart in the source and are kept apart here.

Legend:
[1] = solubility at room temperature; format: physicochemical
From the text: Compound A is an orange amorphous solid, soluble in base and neutral phosphate buffer at room temperature. Compound A has the following beneficial electrochemical characteristics: • E0=0.086V vs Ag/AgCl (0.1M KCl) • kcat=900 s^−1 where E0 is the formal redox potential vs Ag/AgCl (compare to 0.25V for ferricyanide) and kcat is the rate constant for homogeneous electron transfer between the mediator (i.e., Compound A) and enzyme cofactor FAD. It is noted that E0 for ferricyanide is 0.25V and kcat for ferricyanide is 230 s^−1. Compound A has both an E0 that is beneficially lower than that of ferricyanide (and thus less is less susceptible to interferents) and a kcat that is beneficially higher than that of ferricyanide.
Compound B is an orange amorphous solid, soluble in base and neutral phosphate buffer at room temperature. […] has the following beneficial electrochemical characteristics: • E0=0.016V vs Ag/AgCl (0.1M KCl) • kcat=100 s^−1 where E0 is the formal redox potential vs Ag/AgCl (compare to 0.25V for ferricyanide) and kcat is the rate constant for homogeneous electron transfer between the mediator (i.e., Compound A) and enzyme cofactor FAD. It is noted that E0 for ferricyanide is 0.25V and kcat for ferricyanide is 230 s^−1. […]

[2] = storage stability (glucose sensitivity after storage); format: physicochemical; details: storage for 26 days at 40 degrees Celsius

For O=C(O)CCSC1=CC(=O)C(=O)c2ccccc21 [Compound B, 1,2-naphthalenedione-4-(3-mercaptopropionic acid)], the solubility ([1]; in base and neutral phosphate buffer at room temperature) was “soluble” and the “reduction in glucose sensitivity after storage” value [2] was “no reduction in glucose sensitivity”.

In the case of O=C1C=C(SCCCS(=O)(=O)O)c2ccccc2C1=O [Compound A, 1,2-naphthalenedione-4-(3-mercapto-1-propanesulfonic acid)], the solubility [1] is reported as “soluble” and the “reduction in glucose sensitivity after storage” value [2] is reported as “no reduction in glucose sensitivity”.
